We go through 16 compounds from patent US6083987A, “Phenylenediamine derivative, radical scavenger, brain-infarction depressant, and brain-edema depressant” (Shiseido Co., Ltd., priority 1998, dated 2000).

The nature of experiment [1]: Radical Eliminating Effect Test (DPPH). The note with it: 10 μM sample compound, 0.1 mM DPPH, pH 5.5, 30 minutes, room temperature. In kind it is biochemical. The method, then:
Radical Eliminating Effect Test (DPPH)
Radical-eliminating ability of a sample drug is studied in terms of its reaction amount and reactivity with respect to α, α-diphenyl-β-picrylhydrazyl (DPPH) which is a stable radical.
Method of Uchiyama et al. (Japanese Journal of Pharmacology, vol. 88, pp. 678-683, 1968) was used. Namely, to a solution containing 20 mM acetic acid buffer (pH 5.5), 60% ethanol, and 10 μM of a sample compound, DPPH was added so as to yield a concentration of 0.1 mM. The resulting mixture was stirred and then its change in absorbance (ABS) at 517 nm was measured for 30 minutes at room temperature. Here, the sample compound was used as being dissolved in dimethylsulfoxide (DMSO). While the final concentration of DMSO was 10%, no influence upon the present system was observed.
The DPPH reducing ratio of the sample compound at the concentration of 10 μM was calculated by the following equation:
reducing ratio (%)={1-(ABS after 30 minutes/initial ABS)}×100

In the next experiment the test system is rat brain homogenate. Description: Lipid Peroxidation Inhibition Test. In kind it is biochemical, rat (SD-line male). The following applies: 1 μM sample compound, pH 7.4, 1 hour at 37° C., TBA method. The text has this:
Lipid Peroxidation Inhibition Test
In an automatic oxidation system using a rat brain homogenate, whether a sample compound having a radical-eliminating effect can actually have a lipid peroxidation inhibitory activity or not is investigated and its effectiveness is comparatively studied.
With reference to method of Shimamoto et. al. (Clinical Study of Free Radical, vol. 1, pp. 91-95, 1987), the following method was used. An SD-line male rat (7-week-old) was bled to death with a physiological saline perfusion under pentobarbital anesthesia. Then, its hemisphaerium cerebri was taken out and, while being cooled with ice, a 19-fold amount of 20 mM phosphoric acid buffer (pH 7.4) was added thereto. The resulting mixture was homogenized. To this mixture, 1 μM of the sample compound was added. After the resulting mixture was incubated for 1 hour at 37° C., the amount of generated lipid peroxide was determined by TBA method. Namely, to 0.2 ml of the homogenate, 0.2 ml of 8.1% SDS, 1.5 ml of 20% acetic acid buffer (pH 3.5), and 1.5 ml of 0.8% TBA reagent were added. The resulting mixture was incubated for 1 hour at 95° C. and then rapidly cooled with ice. Subsequently, 1 ml of distilled water and 5 ml of n-butanol/pyridine mixed solution (15:1, v/v) were added thereto and the mixture was stirred. After the mixture was centrifuged, the butanol layer was collected therefrom and its absorbance (a) at 535 nm was measured as compared with a blank. Also, as a reference liquid, a 10 μM solution of 1,1,3,3-tetraethoxypropane (TEP) was added in place of the brain homogenate and its absorbance (A) was measured in a similar manner. In the blank, a phosphoric acid buffer was used in place of the brain homogenate. The peroxide concentration was calculated by the following equation and defined as the brain lipid peroxide amount: […]
peroxide concentration (nmol/g wet weight)=a/A×100
The sample compound was used as being dissolved in dimethylsulfoxide (DMSO). While the final concentration of DMSO was 2%, no influence upon the present system was observed.
The lipid peroxidation inhibitory rate of the sample compound at the concentration of 1 μM was calculated from the amount of increase in lipid peroxide in solvent-added group (M) and that in sample compound added group (m): […]
lipid peroxidation inhibitory rate (%)={1-(m/M)}×100

The subject of experiment [2] is middle cerebral artery (MCA) infarction model. Description: Brain Infarction Inhibition Test (MCA infarction model). In kind it is in vivo, rat (Crj:Fischer-344 line male). The following applies: for Brain infarction inhibitory ratio: dose was 100 mg/kg, 2 hours ischemia, 2 hours reperfusion, i.p. 20 minutes before or i.v. simultaneously with reperfusion, * p < 0.05. The method, then:
Brain Infarction Inhibition Test i) Meaning The brain infarction inhibitory activity in vivo is studied. According to this test, it can be judged whether the peripherally administered sample compound can pass through the blood-brain barrier or not. ii) Method For the experiment, 9 to 10-week-old Crj:Fischer-344 line male rats were used. Each of all the soluble sample compounds was dissolved in a physiological saline and then administered intravenously or intraperitoneally. Each of insoluble ones was suspended in a physiological saline containing 0.1% Tween 80 and administered intraperitoneally. Also, those dissolved in a physiological saline containing 0.5% Tween 80 were used for intravenous administration. The intraperitoneal administration was effected 20 minutes before reperfusion, whereas the intravenous administration was effected simultaneously with reperfusion. As a control, only the base was administered. The surgical operation was effected in a manner similar to method of Koizumi et al. (Japanese Journal of Stroke, vol. 8, pp. 1-8, 1986) so as to form a middle cerebral artery (MCA) infarction model. Namely, the rat was subjected to inhalation anesthesia with 4% halothane and then, while the anesthesia was maintained with 1% halothane, fixed on face-up position. The neck portion was subjected to median incision such that the common carotid artery and outer carotid artery around the right carotid artery branching portion were separated from their surrounding connecting tissues and then ligated with a silk string. Further, the inner carotid artery starting portion was surrounded by a silk string so as to be ready for ligation and fixation which would be effected after insertion of an embolus. Then, the common carotid artery was incised and, from there, an embolus having a length of about 16 mm, in which a 4-0 surgical nylon string had been coated with a dental impression material, was inserted toward the inner carotid artery and its end near the nylon string was ligated and fixed to the inner carotid artery with the above mentioned silk string. Also, during the surgical operation, the body temperature was maintained by a small animal body temperature control apparatus in order to prevent it from lowering upon the whole anesthesia processes. According to the foregoing operation, brain ischemia was effected for 2 hours and then the embolus was pulled out so as to effect reperfusion. The brain was taken out two hours after the reperfusion and then 4 pieces of crown-like separated strips were prepared by 2-mm intervals from the lambda level toward the downstream. These strips were immersed in 2% triphenyltetrazorium chloride (TTC) solution and incubated at 37° C., for 10 minutes. Thus dyed brain strips were immersed in a phosphate-buffered 8% formalin solution for 1 to 2 days and then photographed under a stereo-microscope ([…]). Thereafter, for each crown-like strip, the area of infarction region was measured by Planimeter ([…]) Judgment Standard The effects of the sample compound were represented by its individual inhibitory rate (%) which used the total area of the infarction regions, which had not been dyed with TTC in the 4 strips. The significance test was effected by student t-test. individual inhibitory rate(%)={1-(value in sample group/value in control group)}×100

For experiment [3], the system named is MCA infarction reperfusion model. Description: Brain Edema Inhibition Test (MCA infarction reperfusion model). In kind it is in vivo, rat (Fischer). The note with it: dose was 100 mg/kg; i.p. 20 minutes before reperfusion; two-hour ischemia and two-hour reperfusion; brain moisture content. The text has this: Brain Edema Inhibition Test
The brain edema inhibitory activity in vivo is confirmed. According to this test, it can be judged whether the peripherally administered sample compound can pass through the blood-brain barrier or not.
By using a 7 to 9-week-old Fischer rat (Charles River Japan Inc.), an MCA infarction reperfusion model was formed according to method of Koizumi et al. (Japanese Journal of Stroke, vol. 8, pp. 1-8, 1986). Namely, the rat was fixed face-up position under anesthesia with 2% halothane and then its neck portion was subjected to median incision so as to separate the right common carotid artery therefrom to the carotid artery branching portion while carefully keeping the vagus nerve. The outer carotid artery and inner carotid artery around the carotid artery branching portion were separated from their surrounding connecting tissues. Then, the common carotid artery and outer carotid artery were ligated with a silk string. Further, the inner carotid artery starting portion was surrounded by a silk string so as to be ready for ligation and fixation which would be effected after insertion of an embolus string. Then, the common carotid artery was incised and, from there, an embolus string was inserted toward the inner carotid artery by about 15 to 16 mm and then ligated and fixed to the inner carotid artery with the above mentioned silk string. As a result of the foregoing operation, the tip of the embolus string proceeded beyond the MCA branching portion so as to enter the anterior cerebral artery by about 1 to 2 mm and formed infarction at the MCA inlet by the body portion of the embolus string. After the embolus string blocking the MCA starting portion was left for a predetermined time, it was pulled out under halothane anesthesia to effect reperfusion. Here, in this model, since the right common carotid artery has been ligated, the blood flow is supposed to be restarted from the left inner carotid artery and vertebral-basilar by way of the anterior and posterior communicating arteries. This experiment effected two-hour ischemia and two-hour reperfusion.
Here, the embolus string was prepared in the following manner. Namely, a tip of a 4-0 surgical nylon string having a total length of 16 mm was held over an alcohol lamp so as to form a ball with a diameter of 0.2 to 0.3 mm and then a length of about 5 mm on the nearer side therefrom was coated with a dental impression material with reference to the size of the ball, thereby forming the embolus string.
The brain moisture content was measured by wet and dry weight method. […] Further, after being dried at 110° C. for 24 hours, their weight was measured again to yield dry weight. From thus obtained wet weight and dry weight, the brain moisture content was determined by the following equation: […]

On to `CC(C)Cc1cc(C(=O)Nc2ccc(N(C)C)cc2)ccc1O` [Example 1], for which the DPPH reducing ratio in experiment [1] came out at 22.9%. The “Lipid peroxidation inhibitory ratio” value with rat brain homogenate worked out at 40.1%. Also, the “Brain infarction inhibitory ratio” value in experiment [2] worked out at 53.0%. In addition, the “Brain edema inhibitory ratio” value in experiment [3] stood at 2.0%.
For the compound `CC(C)Cc1ccc(O)c(C(=O)Nc2ccc(N(C)C)cc2)c1` [Example 2], the DPPH reducing ratio in experiment [1] came out at 17.7%. Moreover, the “Lipid peroxidation inhibitory ratio” value with rat brain homogenate was 26.8%. Besides, the “Brain infarction inhibitory ratio” value in experiment [2] was 41.2%.
`CC(C)Cc1cccc(C(=O)Nc2ccc(N(C)C)cc2)c1O` [Example 3]: the DPPH reducing ratio in experiment [1] worked out at 22.5%. The “Lipid peroxidation inhibitory ratio” value in the experiment with rat brain homogenate came to 22.7%.
Regarding `CC(C)Cc1ccc(C(=O)Nc2ccc(N(C)C)cc2)cc1O` [Example 4], the DPPH reducing ratio in experiment [1] was determined as 16.4%. Besides, the “Lipid peroxidation inhibitory ratio” value with rat brain homogenate is 13.5%.
With `CC(C)Cc1nccc(C(=O)Nc2ccc(N(C)C)cc2)c1O` [Example 5], the DPPH reducing ratio in experiment [1] is listed as 16.1%. In addition, the “Lipid peroxidation inhibitory ratio” value in the experiment on rat brain homogenate amounted to 29.5%. Further, the “Brain infarction inhibitory ratio” value in experiment [2] was found to be 19.0%. Moreover, the “Brain edema inhibitory ratio” value in experiment [3] was found to be 38.1%.
Consider `COc1ccc(COc2ccc(C(=O)Nc3ccc(N(C)C)cc3)cc2CC(C)C)cc1` [Example 6], for which the DPPH reducing ratio in experiment [1] is recorded as 25.1%. Further, the “Lipid peroxidation inhibitory ratio” value in the experiment on rat brain homogenate came out at 41.7%. Further, the “Brain edema inhibitory ratio” value in experiment [3] came to 1.5%.
`COc1ccc(C(=O)Nc2ccc(N(C)C)cc2)cc1CC(C)C` [Example 7]: the DPPH reducing ratio in experiment [1] is given as 20.7%. Also, in the experiment on rat brain homogenate, the “Lipid peroxidation inhibitory ratio” value came out at 48.9%.
`CC(C)=CCC/C(C)=C/COc1ccc(C(=O)Nc2ccc(N(C)C)cc2)cc1CC(C)C` [Example 8]: the DPPH reducing ratio in experiment [1] turned out to be 21.2%. The “Lipid peroxidation inhibitory ratio” value with rat brain homogenate is 41.7%.
With `CC(C)Cc1cc(C(=O)Nc2ccc(N(C)C)cc2)ccc1OCc1ccccc1` [Example 9], the DPPH reducing ratio in experiment [1] is reported as 25.5%. For the same compound, the “Lipid peroxidation inhibitory ratio” value in the experiment on rat brain homogenate is listed as 28.1%. In addition, the “Brain infarction inhibitory ratio” value in experiment [2] came to 39.9%. In addition, the “Brain edema inhibitory ratio” value in experiment [3] turned out to be 19.2%.
For the compound `CC(C)Cc1cccc(C(=O)Nc2ccc(N(C)C)cc2)c1OCc1ccccc1` [Example 10], the DPPH reducing ratio in experiment [1] worked out at 11.5%. Also, the “Lipid peroxidation inhibitory ratio” value in the experiment on rat brain homogenate is listed as 28.2%. Also, the “Brain infarction inhibitory ratio” value in experiment [2] was 18.7%. In addition, the “brain infarction inhibition activity, in words” value in experiment [2] (rat, in vivo) is listed as “showed brain infarction inhibition tendency”.
For the compound `CC(C)Cc1cc(S(=O)(=O)Nc2ccc(N(C)C)cc2)ccc1O` [Example 12], in experiment [1], the DPPH reducing ratio is recorded as 61.8%. In addition, the “Lipid peroxidation inhibitory ratio” value in the experiment on rat brain homogenate is reported as 24.2%. Also, the “Brain infarction inhibitory ratio” value in experiment [2] was found to be 0.7%.
Regarding `CC(C)Cc1cc(S(=O)(=O)Nc2ccc(N(C)C)cc2)ccc1OC(=O)c1ccccc1` [Example 13], the DPPH reducing ratio in experiment [1] worked out at 58.9%. Besides, the “Lipid peroxidation inhibitory ratio” value in the experiment on rat brain homogenate turned out to be 13.4%.
`CC(C)Cc1cc(C(=S)Nc2ccc(N(C)C)cc2)ccc1O` [Example 14]: the DPPH reducing ratio in experiment [1] was 18.3%. The “Lipid peroxidation inhibitory ratio” value in the experiment with rat brain homogenate came to 33.9%.
For the compound `CC(C)Cc1cc(CC(=O)Nc2ccc(N(C)C)cc2)ccc1OCc1ccccc1` [Example 15], the DPPH reducing ratio in experiment [1] is 12.8%. The “Lipid peroxidation inhibitory ratio” value in the experiment on rat brain homogenate was 24.8%. Further, the “Brain infarction inhibitory ratio” value in experiment [2] is 2.8%.
In the case of `CC(C)Cc1cc(CC(=O)Nc2ccc(N(C)C)cc2)ccc1O` [Example 16], in experiment [1], the DPPH reducing ratio is reported as 21.0%. For the same compound, in the experiment on rat brain homogenate, the “Lipid peroxidation inhibitory ratio” value amounted to 14.4%.
As for `CC(C)Cc1cccc(CC(=O)Nc2ccc(N(C)C)cc2)c1O` [Example 17], the DPPH reducing ratio in experiment [1] stood at 18.7%. For the same compound, in the experiment with rat brain homogenate, the “Lipid peroxidation inhibitory ratio” value was 10.4%.
